Counter-ions that a name gives are not always drawn. Like-named read-outs stand apart in the source and are kept apart here. Marks after values point to notes of the source that are not given here.
Experiments:
Type in all cases: cell-based
human 5-HT2A [1] = target: T1, human 5-HT2A (Homo sapiens (Human), UniProt P28223); assay: cell-based; conditions: IP assay; for 5-HT2A Rmax: % of Rmax of 5-HT; for EC50: duplicate determinations
human 5-HT2A [2] = target: T1, human 5-HT2A; assay: cell-based; conditions: for Selectivity EC50 5-HT2C/EC50 5-HT2A: Ca2+/Fluo-4 assay, bounds are conservative estimates; for EC50: agonist potency, n = 3-4
5-HT2B = 5-HT2B (Homo sapiens (Human), UniProt P41595); assay: IP assay (Eurofins, IP1 HTRF), HEK293 cells; conditions: for 5-HT2B Rmax: % of Rmax of 5-HT; for Selectivity EC50 5-HT2B/EC50 5-HT2A: bounds are conservative estimates; for EC50: duplicate determinations, read-out: 5-HT2B EC50;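 for all read-outs here: agonist effect read as cellular IP1 production by HTRF using a europium cryptate anti-IP1 antibody donor and D2-labeled IP1 acceptor, eight compound concentrations in each cell line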
Description: The agonist properties of the compounds were characterized at HEK293 cell lines expressing the human 5-HT2A, human 5-HT2B or human 5-HT2C receptors in an IP assay essentially as previously described.^19 The testing was performed by Eurofins. In the assay, the agonist activity of the compound at the receptors is investigated by measuring its effect on IP1 production in the cell using the Homogeneous Time Resolved Fluorescence (HTRF) detection method. […] Following incubation, the cells were lysed, and the fluorescence acceptor (D2-labeled IP1) and fluorescence donor (anti-IP1 antibody labeled with europium cryptate) were added. […] The test compounds were characterized in eight different concentrations in duplicate at each of the three cell lines.

5-HT2C = 5-HT2C (Homo sapiens (Human), UniProt P28335); assay: Ca2+/Fluo-4 assay, stable h5-HT2C-HEK293 cell line; conditions: for 5-HT2C Rmax ± S.E.M: % of the Rmax of 5-HT; for EC50: agonist potency, n = 3-4;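 for all read-outs here: Agonist-induced intracellular Ca2+ rise read by Fluo-4 fluorescence in HEK293 cells stably expressing the human 5-HT2C receptor, each compound run in duplicate on three or more occasions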
[3] = read-out: 5-HT2C [pEC50 ± S.E.M.] (converted)
[4] = read-out: 5-HT2A [pEC50 ± S.E.M.] (converted)

5-HT2C, sequence (P28335 whole entry, looked up): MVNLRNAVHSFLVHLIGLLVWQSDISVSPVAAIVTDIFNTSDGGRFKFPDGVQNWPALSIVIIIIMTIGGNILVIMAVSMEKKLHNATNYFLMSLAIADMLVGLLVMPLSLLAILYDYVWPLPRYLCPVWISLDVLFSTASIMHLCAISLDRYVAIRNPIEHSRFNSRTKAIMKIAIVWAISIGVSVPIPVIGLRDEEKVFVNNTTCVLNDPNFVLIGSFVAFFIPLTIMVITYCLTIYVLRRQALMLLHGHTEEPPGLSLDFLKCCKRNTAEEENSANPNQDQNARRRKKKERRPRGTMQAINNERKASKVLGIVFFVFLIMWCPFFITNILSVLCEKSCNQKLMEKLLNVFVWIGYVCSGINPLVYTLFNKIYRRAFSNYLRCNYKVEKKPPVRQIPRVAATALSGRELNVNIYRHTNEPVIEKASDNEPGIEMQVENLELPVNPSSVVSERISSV
5-HT2B, sequence (P41595 whole entry, looked up): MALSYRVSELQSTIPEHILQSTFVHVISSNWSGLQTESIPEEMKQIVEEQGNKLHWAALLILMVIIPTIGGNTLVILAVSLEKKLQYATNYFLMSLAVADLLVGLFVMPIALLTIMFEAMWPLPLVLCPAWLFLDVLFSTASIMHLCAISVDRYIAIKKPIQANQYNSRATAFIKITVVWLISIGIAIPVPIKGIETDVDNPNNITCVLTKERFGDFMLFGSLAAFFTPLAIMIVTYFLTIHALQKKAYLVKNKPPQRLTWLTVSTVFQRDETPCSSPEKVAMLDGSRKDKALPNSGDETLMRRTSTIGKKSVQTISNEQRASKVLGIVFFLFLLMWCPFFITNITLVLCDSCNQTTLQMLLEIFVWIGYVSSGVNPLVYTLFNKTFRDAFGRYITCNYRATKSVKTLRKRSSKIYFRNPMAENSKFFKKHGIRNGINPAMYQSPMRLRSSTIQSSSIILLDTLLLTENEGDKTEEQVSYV

COc1cc(C(F)(F)F)c(F)cc1[C@@H]1CCCNC1.Cl [Compound 51, (S)-3-(5-fluoro-2-methoxy-4-(trifluoromethyl)phenyl)piperidine hydrochloride]
5-HT2A Rmax (human 5-HT2A [1]): 59% | EC50 (human 5-HT2A [1]): 260 nM | 5-HT2A Rmax ± S.E.M (human 5-HT2A [2]; % of the Rmax of 5-HT): 79 ± 5% | Selectivity EC50 5-HT2C/EC50 5-HT2A (human 5-HT2A [2]): >100^e | EC50 (human 5-HT2A [2]; read-out: 5-HT2A EC50): 140 nM | 5-HT2B Rmax (5-HT2B): 37% | Selectivity EC50 5-HT2B/EC50 5-HT2A (5-HT2B): 2.8 | EC50 (5-HT2B): 740 nM

COc1cc(C(F)(F)F)c(OC)cc1C1CCCNC1C.Cl (stereo not drawn) [Compound 35, 3-(2,5-dimethoxy-4-(trifluoromethyl)phenyl)-2-methylpiperidine hydrochloride]
5-HT2A Rmax (human 5-HT2A [1]): 70% | EC50 (human 5-HT2A [1]): 260 nM | 5-HT2A Rmax ± S.E.M (human 5-HT2A [2]; % of the Rmax of 5-HT): 75 ± 4% | Selectivity EC50 5-HT2C/EC50 5-HT2A (human 5-HT2A [2]): 41 | EC50 (human 5-HT2A [2]; read-out: 5-HT2A EC50): 73 nM | 5-HT2C Rmax ± S.E.M (5-HT2C): 21 ± 2% | EC50 (5-HT2C; read-out: 5-HT2C EC50): 3000 nM | EC50 (5-HT2C; [3]): 2950 nM | 5-HT2B Rmax (5-HT2B): 28% | Selectivity EC50 5-HT2B/EC50 5-HT2A (5-HT2B): 3.3 | EC50 (5-HT2B): 850 nM

CCOc1cc([C@@H]2CCCNC2)c(OC)cc1CC.Cl [Compound 34, (S)-3-(5-ethoxy-4-ethyl-2-methoxyphenyl)piperidine hydrochloride]
5-HT2A Rmax (human 5-HT2A [1]): 78% | EC50 (human 5-HT2A [1]): 160 nM | 5-HT2A Rmax ± S.E.M (human 5-HT2A [2]; % of the Rmax of 5-HT): 88 ± 4% | Selectivity EC50 5-HT2C/EC50 5-HT2A (human 5-HT2A [2]): 16 | EC50 (human 5-HT2A [2]; read-out: 5-HT2A EC50): 52 nM | EC50 (human 5-HT2A [2]; [4]): 51.3 nM | 5-HT2C Rmax ± S.E.M (5-HT2C): 28 ± 4% | EC50 (5-HT2C; read-out: 5-HT2C EC50): 840 nM | 5-HT2B Rmax (5-HT2B): 50% | Selectivity EC50 5-HT2B/EC50 5-HT2A (5-HT2B): 5.4 | EC50 (5-HT2B): 860 nM

CCSc1cc(OC)c([C@@H]2CCCNC2)cc1OC.Cl [Compound 28, (S)-3-(2,5-dimethoxy-4-(ethylthio)phenyl)piperidine hydrochloride]
5-HT2A Rmax (human 5-HT2A [1]): 62% | EC50 (human 5-HT2A [1]): 180 nM | 5-HT2B Rmax (5-HT2B): 55% | EC50 (5-HT2B): 240 nM

COc1cc(C(F)(F)F)c(OC)cc1C1CCC(C)NC1 (single isomer, unassigned) [Compound 37, 5-(2,5-dimethoxy-4-(trifluoromethyl)phenyl)-2-methylpiperidine hydrochloride]
5-HT2A Rmax (human 5-HT2A [1]; hydrochloride): 110% | EC50 (human 5-HT2A [1]): 1500 nM | 5-HT2A Rmax ± S.E.M (human 5-HT2A [2]; % of the Rmax of 5-HT, hydrochloride): 90 ± 10% | Selectivity EC50 5-HT2C/EC50 5-HT2A (human 5-HT2A [2]; hydrochloride): 13 | EC50 (human 5-HT2A [2]; read-out: 5-HT2A EC50): 270 nM | EC50 (human 5-HT2A [2]; [4]): 263 nM | 5-HT2C Rmax ± S.E.M (5-HT2C): 33 ± 5% | EC50 (5-HT2C; read-out: 5-HT2C EC50): 3400 nM | 5-HT2B Rmax (5-HT2B; hydrochloride): 54% | Selectivity EC50 5-HT2B/EC50 5-HT2A (5-HT2B; hydrochloride): 0.4 | EC50 (5-HT2B): 620 nM

CCSc1cc([C@@H]2CCCNC2)c(OC)cc1C(F)(F)F.Cl [Compound 47, (S)-3-(2-methoxy-5-(ethylthio)-4-(trifluoromethyl)phenyl)piperidine Hydrochloride]
5-HT2A Rmax (human 5-HT2A [1]): 95% | EC50 (human 5-HT2A [1]): 130 nM | 5-HT2A Rmax ± S.E.M (human 5-HT2A [2]; % of the Rmax of 5-HT): 96 ± 3% | Selectivity EC50 5-HT2C/EC50 5-HT2A (human 5-HT2A [2]): 17 | EC50 (human 5-HT2A [2]; [4]): 26.3 nM | 5-HT2C Rmax ± S.E.M (5-HT2C): 43 ± 6% | EC50 (5-HT2C; read-out: 5-HT2C EC50): 450 nM | EC50 (5-HT2C; [3]): 457 nM | 5-HT2B Rmax (5-HT2B): 49% | Selectivity EC50 5-HT2B/EC50 5-HT2A (5-HT2B): 4.8 | EC50 (5-HT2B): 620 nM

CCOc1cc(CC)c(OC)cc1[C@@H]1CCCNC1 [Compound 43, (S)-3-(2-ethoxy-4-ethyl-5-methoxyphenyl)piperidine]
5-HT2A Rmax (human 5-HT2A [1]): 45% | EC50 (human 5-HT2A [1]): 670 nM | 5-HT2A Rmax ± S.E.M (human 5-HT2A [2]; % of the Rmax of 5-HT): 42 ± 6% | Selectivity EC50 5-HT2C/EC50 5-HT2A (human 5-HT2A [2]): >1,000^e | EC50 (human 5-HT2A [2]; read-out: 5-HT2A EC50): 140 nM | EC50 (human 5-HT2A [2]; [4]): 138 nM | EC50 (5-HT2C; read-out: 5-HT2C EC50): > 50000 nM | 5-HT2B Rmax (5-HT2B): 11% | Selectivity EC50 5-HT2B/EC50 5-HT2A (5-HT2B): 1.6 | EC50 (5-HT2B): 1100 nM

COc1cc([C@@H]2CCCNC2)c(OC)cc1SC(C)C [Compound 26, (S)-3-(4-(isopropylthio)-2,5-dimethoxyphenyl)piperidine]
5-HT2A Rmax (human 5-HT2A [1]): 72% | EC50 (human 5-HT2A [1]): 1100 nM | EC50 (human 5-HT2A [2]; read-out: 5-HT2A EC50): 160 nM | EC50 (human 5-HT2A [2]; [4]): 155 nM | 5-HT2B Rmax (5-HT2B): 43% | EC50 (5-HT2B): 1200 nM

CCOc1cc(C(F)(F)F)c(OC)cc1[C@@H]1CCCNC1.Cl [Compound 30, (S)-3-(2-ethoxy-5-methoxy-4-(trifluoromethyl)phenyl)piperidine hydrochloride]
5-HT2A Rmax (human 5-HT2A [1]): 35% | EC50 (human 5-HT2A [1]): 140 nM | 5-HT2A Rmax ± S.E.M (human 5-HT2A [2]; % of the Rmax of 5-HT): 40 ± 3% | EC50 (human 5-HT2A [2]; [4]): 38 nM | 5-HT2B Rmax (5-HT2B): 26% | EC50 (5-HT2B): 1200 nM

COc1cc([C@@H]2CCCNC2)c(OCF)cc1C(F)(F)F [Compound 39, (S)-3-(2-(fluoromethoxy)-5-methoxy-4-(trifluoromethyl)phenyl)piperidine]
5-HT2A Rmax (human 5-HT2A [1]): 60% | EC50 (human 5-HT2A [1]): 300 nM | 5-HT2A Rmax ± S.E.M (human 5-HT2A [2]; % of the Rmax of 5-HT): 40 ± 5% | Selectivity EC50 5-HT2C/EC50 5-HT2A (human 5-HT2A [2]): >300^e | EC50 (human 5-HT2A [2]; read-out: 5-HT2A EC50): 150 nM | 5-HT2B Rmax (5-HT2B): 54% | Selectivity EC50 5-HT2B/EC50 5-HT2A (5-HT2B): 3.6 | EC50 (5-HT2B): 1100 nM

COc1cc([C@H]2CCCNC2)c(OC)cc1SC [Compound 17, (R)-3-(2,5-dimethoxy-4-(methylthio)phenyl)piperidine hydrochloride]
EC50 (human 5-HT2A [2]; read-out: 5-HT2A EC50): 180 nM | EC50 (human 5-HT2A [2]; [4]): 178 nM | EC50 (5-HT2C; read-out: 5-HT2C EC50): 2300 nM | EC50 (5-HT2C; [3]): 2340 nM

CCOc1cc(C(F)(F)F)c(OCC)cc1[C@@H]1CCCNC1.Cl [Compound 22, (S)-3-(2,5-diethoxy-4-(trifluoromethyl)phenyl)piperidine hydrochloride]
5-HT2A Rmax (human 5-HT2A [1]): 54% | EC50 (human 5-HT2A [1]): 170 nM | 5-HT2A Rmax ± S.E.M (human 5-HT2A [2]; % of the Rmax of 5-HT): 47 ± 6% | Selectivity EC50 5-HT2C/EC50 5-HT2A (human 5-HT2A [2]): >300^e | EC50 (human 5-HT2A [2]; read-out: 5-HT2A EC50): 100 nM | EC50 (human 5-HT2A [2]; [4]): 102 nM | Selectivity EC50 5-HT2B/EC50 5-HT2A (5-HT2B): >1,000^c | EC50 (5-HT2B): > 100000 nM

COc1cc(C(F)(F)F)c(OC)cc1[C@@H]1CCCN(C)C1 [Compound 61, (S)-3-(2,5-dimethoxy-4-(trifluoromethyl)phenyl)-1-methylpiperidine]
5-HT2A Rmax ± S.E.M (human 5-HT2A [2]; % of the Rmax of 5-HT): 19 ± 2% | EC50 (human 5-HT2A [2]; read-out: 5-HT2A EC50): 390 nM | EC50 (human 5-HT2A [2]; [4]): 398 nM | loss of potency at 5-HT2A compared to compound 8 (factor) (human 5-HT2A [2]; nitrogen substituents (tertiary amines)): ~20 | EC50 (5-HT2C; read-out: 5-HT2C EC50): 920 nM

COc1cc(CC(C)N)c(OC)cc1I (stereo not drawn) [drawing 22, reference compound]
5-HT2A Rmax ± S.E.M (human 5-HT2A [2]): 88 ± 7% | EC50 (5-HT2C; 5-HT2C [pEC50 ± S.E.M.]): 3.39 nM | 5-HT2C Rmax ± S.E.M (5-HT2C): 83 ± 8%

COc1cc([C@H]2CCNC2)c(OC)cc1Br [Compound 3, (R)-3-(4-bromo-2,5-dimethoxyphenyl)pyrrolidine]
5-HT2A Rmax ± S.E.M (human 5-HT2A [2]; % of the Rmax of 5-HT): 57 ± 3% | Selectivity EC50 5-HT2C/EC50 5-HT2A (human 5-HT2A [2]): 4.9 | EC50 (human 5-HT2A [2]; read-out: 5-HT2A EC50): 5.3 nM | EC50 (human 5-HT2A [2]; [4]): 7.76 nM | 5-HT2C Rmax ± S.E.M (5-HT2C): 73 ± 3% | EC50 (5-HT2C; [3]): 25.7 nM

COc1cc([C@H]2CCCNC2)c(OC)cc1Br [Compound 11, (R)-3-(4-bromo-2,5-dimethoxyphenyl)piperidine]
EC50 (human 5-HT2A [2]; read-out: 5-HT2A EC50): 370 nM | EC50 (5-HT2C; read-out: 5-HT2C EC50): 1900 nM

CCSc1cc(OC)c([C@H]2CCCNC2)cc1OC [Compound 27, (R)-3-(2,5-dimethoxy-4-(ethylthio)phenyl)piperidine hydrochloride]
EC50 (human 5-HT2A [2]; read-out: 5-HT2A EC50): 190 nM | EC50 (human 5-HT2A [2]; [4]): 186 nM | EC50 (5-HT2C; read-out: 5-HT2C EC50): 780 nM

CCc1cc(OC)c([C@@H]2CCCNC2)cc1OC.Cl [Compound 32, (S)-3-(4-ethyl-2,5-dimethoxyphenyl)piperidine hydrochloride]
5-HT2A Rmax (human 5-HT2A [1]): 85% | EC50 (human 5-HT2A [1]): 110 nM | 5-HT2A Rmax ± S.E.M (human 5-HT2A [2]; % of the Rmax of 5-HT): 79 ± 4% | EC50 (human 5-HT2A [2]; [4]): 40.7 nM | 5-HT2B Rmax (5-HT2B): 54% | EC50 (5-HT2B): 280 nM

COc1cc(C(F)(F)F)c(F)cc1[C@H]1CCCNC1.Cl [Compound 50, (R)-3-(5-fluoro-2-methoxy-4-(trifluoromethyl)phenyl)piperidine hydrochloride]
5-HT2A Rmax ± S.E.M (human 5-HT2A [2]; % of the Rmax of 5-HT): 78 ± 6% | Selectivity EC50 5-HT2C/EC50 5-HT2A (human 5-HT2A [2]): 2.8 | EC50 (human 5-HT2A [2]; read-out: 5-HT2A EC50): 640 nM | 5-HT2C Rmax ± S.E.M (5-HT2C): 40 ± 8% | EC50 (5-HT2C; read-out: 5-HT2C EC50): 1800 nM | EC50 (5-HT2C; [3]): 1780 nM

COc1cc([C@@H]2CCCNC2)c(OC)cc1C.Cl [Compound 24, (S)-3-(2,5-dimethoxy-4-methylphenyl)piperidine hydrochloride]
5-HT2A Rmax (human 5-HT2A [1]): 67% | EC50 (human 5-HT2A [1]): 560 nM | EC50 (human 5-HT2A [2]; read-out: 5-HT2A EC50): 100 nM | EC50 (human 5-HT2A [2]; [4]): 105 nM | 5-HT2B Rmax (5-HT2B): 38% | EC50 (5-HT2B): 360 nM
